Each block holds one molecule with its values, some of them ahead of it.
How the values were obtained:
[1] = molecular target: T1, Human leucocytic elastase (Homo sapiens, UniProt P08246); experiment: Serine protease inhibition, E/IC50: human leucocytic elastase; assay type: biochemical; details: human leucocytic elastase vs thrombin
T1 sequence (P08246 30-247 limits assumed): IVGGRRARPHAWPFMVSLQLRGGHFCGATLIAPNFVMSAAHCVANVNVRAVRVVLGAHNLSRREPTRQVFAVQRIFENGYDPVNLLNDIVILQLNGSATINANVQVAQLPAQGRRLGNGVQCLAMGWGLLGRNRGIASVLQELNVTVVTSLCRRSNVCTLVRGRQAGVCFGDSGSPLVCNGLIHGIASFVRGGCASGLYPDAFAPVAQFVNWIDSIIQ
Experimental: (§1) The inhibition test was carried out by using succinyltrialanine p-nitroanilide as a synthetic substrate. Human leucocytic elastase, used at a concentration of 1 μg/ml, was first pre-incubated for 15 min with the compounds of the invention, used at a concentration of 0.5, 5, 10, 25 and 50 μg/ml. These compounds were added in the form of a solution in acetone, the final acetone concentration of the reaction mixture being 1%.
The degree of hydrolysis of the substrate was determined by measuring the amount of p-nitroaniline released, using a Philips PO 8700 spectrophotometer at 410 nm. […]
The inhibition exerted by the following two compounds on serine-containing proteases other than human Teucocytic elastase was determined in this Example: […]
The appropriate substrate was then added to each enzyme, and its hydrolysis was monitored with a Philips 8700 spectrophotometer at 410 nm by measuring the amount of p-nitroaniline appearing in the medium. […]
(§2) Inhibition of human leucocytic elastase was also determined, as in Example 12.
(§3) To be able to compare the inhibitory power of the compounds tested on the various enzymes used, the E/IC50 value was calculated, where E is the concentration of the enzyme in the reaction mixture (also expressed in mole/l ). […]

Pig pancreatic elastase = Pig pancreatic elastase (Sus scrofa, UniProt P00772); experiment: Serine protease inhibition, E/IC50: pig pancreatic elastase; assay type: biochemical; details: pig pancreatic elastase vs thrombin
Experimental: (§4) The inhibition exerted by the following two compounds on serine-containing proteases other than human Teucocytic elastase was determined in this Example:
(§5) More specifically, the activity of a) pig pancreatic elastase, b) trypsin, c) thrombin and d) plasmin was determined in the presence of these inhibitors and of the synthetic substrates: a) succinyltrialanine p-nitroanilide, b) N-benzoyl-DL-arginine p-nitroanilide, c) N-p-tosyl-gly-pro-arg p-nitroanilide and d) N-p-tosyl-gly-pro-lys p-nitroanilide, respectively.
(§6) Each enzyme was first incubated for 15 min with 0-50 μg/ml of compound B or P mentioned above, which had been dissolved in acetone as in the test with human leucocytic elastase, the final concentration of this solvent in the reaction mixture being 1%.
(§7) The appropriate substrate was then added to each enzyme, and its hydrolysis was monitored with a Philips 8700 spectrophotometer at 410 nm by measuring the amount of p-nitroaniline appearing in the medium.
(§8) The results were used to plot the inhibition of the enzymatic activity against the amount of inhibitor present in the medium. […]
as §3

Trypsin = molecular target: T2, Trypsin (Bos taurus, UniProt P00760); experiment: Serine protease inhibition, E/IC50: trypsin; assay type: biochemical
T2 sequence (P00760 24-246): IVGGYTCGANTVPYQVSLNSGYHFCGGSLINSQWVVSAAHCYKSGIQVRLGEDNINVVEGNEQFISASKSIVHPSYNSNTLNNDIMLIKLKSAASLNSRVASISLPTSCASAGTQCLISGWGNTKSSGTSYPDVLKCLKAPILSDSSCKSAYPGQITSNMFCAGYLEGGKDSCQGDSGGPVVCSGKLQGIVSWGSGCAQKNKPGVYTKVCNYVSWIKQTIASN
Experimental: as §4, §5, §6, §7
The results were used to plot the inhibition of the enzymatic activity against the amount of inhibitor present in the medium. These curves were then used to find the median inhibitory concentration (IC50) in mole/l, which inhibits 50% of the enzymatic activity.
To be able to compare the inhibitory power of the compounds tested on the various enzymes used, the E/IC50 value was calculated, where E is the concentration of the enzyme in the reaction mixture (also expressed in mole/l ). The higher the value of this quotient, the stronger the inhibitory activity, and therefore the lower the number of moles of the inhibitor that are needed to obtain a 50% inhibition for the same number of moles of the enzyme.

Plasmin = experiment: Serine protease inhibition, E/IC50: plasmin; assay type: biochemical
Experimental: as §4, §5, §6, §7, §8, §3

[2] = molecular target: T1, Human leucocytic elastase; experiment: Inhibition of human leucocytic elastase (succinyltrialanine p-nitroanilide substrate); assay type: biochemical; details: elastase 1 μg/ml, pre-incubated 15 min; 1% acetone; 410 nm
Experimental: as §1
The degree of hydrolysis of the substrate was determined by measuring the amount of p-nitroaniline released, using a Philips PO 8700 spectrophotometer at 410 nm. The 50% inhibitory concentration (IC50) in mole/liter was then determined by a graphical method, using the inhibition values obtained with the different concentrations of the substrate and the inhibitor. […] It can thus be seen that the inhibitory action of these compounds increases with the number of carbon atoms in the R^2 group on going from C9 to C17.

[3] = molecular target: T1, Human leucocytic elastase; experiment: Direct inhibition of elastin-cleaving activity of human leucocytic elastase (first series, elastase pre-incubated with compound); assay type: biochemical; details: pH 8.4, 7 h at 37° C.
Experimental: 1) Inhibitory action […] Tritiated insoluble elastin extracted from the nuchal ligament was then added in a concentration of 75 μg/ml, corresponding to a radioactivity level of 2.2×10^6 counts per minute (cpm) per ml. The degree of the hydrolysis of elastin was calculated in all three cases after incubation with elastase for 7 h at 37° C. by determining the radioactivity in the solubilized peptides derived from the elastin.

[4] = molecular target: T1, Human leucocytic elastase; experiment: Protective action on insoluble elastin against human leucocytic elastase (second and third series, elastin pre-incubated with compound); assay type: biochemical; details: 50-100 μg/ml, elastin first incubated with compound 30 min or 10 min
Experimental: Tritiated insoluble elastin extracted from the nuchal ligament was then added in a concentration of 75 μg/ml, corresponding to a radioactivity level of 2.2×10^6 counts per minute (cpm) per ml. 2) Protective action […] 3) Third series […] The mixture was then centrifuged, the supernatant was discarded, and the residue was suspended in the buffer that contained human leucocytic elastase. The degree of the hydrolysis of elastin was calculated in all three cases after incubation with elastase for 7 h at 37° C. by determining the radioactivity in the solubilized peptides derived from the elastin.

[5] = molecular target: T1, Human leucocytic elastase; experiment: Protective action on the elastin in rabbit skin sections treated with human leucocytic elastase; details: 1.5 h at 37° C.
Experimental: The segments of rabbit skin were incubated for 1.5 h at 37° C. In the control experiment, they were incubated only with the buffer (100-mM tris-HCl, 0.1% of Brij 35, pH 8) under the same conditions. Thin sections of the skin specimens were then fixed for 2 min in 95% ethanol and stained for 3 h by a modified Verhoeff method, described by Godeau et al. [cf. Pathol. Biol., 32 (1984) pp. 215-6]. After a suitable contrast treatment, the surface density of the elastic fibres was determined by automatic image analysis, carried out directly on the microscope slides.

serine proteases = experiment: Comparison of inhibitory power over all serine proteases used (E/IC50); assay type: biochemical; details: all enzymes of Table 2
Experimental: as §4, §5, §6, §7, §8, §2, §3

Pig pancreatic elastase, sequence (P00772 27-266): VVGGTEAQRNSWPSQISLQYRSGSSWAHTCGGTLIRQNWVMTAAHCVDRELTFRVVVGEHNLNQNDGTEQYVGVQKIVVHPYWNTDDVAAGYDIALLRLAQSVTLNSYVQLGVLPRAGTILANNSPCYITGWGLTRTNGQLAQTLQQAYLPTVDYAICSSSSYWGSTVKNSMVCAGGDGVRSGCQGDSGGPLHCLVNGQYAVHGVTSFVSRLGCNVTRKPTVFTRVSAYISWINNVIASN

SMILES: CCCC(=O)N1C(=O)c2ccccc2S1(=O)=O [2-butyryl-benzisothiazolinone-1-dioxide]
inhibition relative to thrombin (in words) [1]: more strongly than it inhibits thrombin
inhibition relative to thrombin (in words) (Pig pancreatic elastase): more strongly than it inhibits thrombin
effect on trypsin (in words) (Trypsin; 0-50 μg/ml): activates trypsin
E/IC50 (Trypsin; E = enzyme concentration (mole/l), N-benzoyl-DL-arginine p-nitroanilide substrate): activator
effect on plasmin (in words) (Plasmin; 0-50 μg/ml): no effect on plasmin
E/IC50 (Plasmin; E = enzyme concentration (mole/l), N-p-tosyl-gly-pro-lys p-nitroanilide substrate): inactive

SMILES: CCCCCCCCCCCC(=O)N1C(=O)c2ccccc2S1(=O)=O [Example 1, 2-lauroylbenzisothiazolinone-1-dioxide]
IC50 [2]: 11 µM
inhibition at 45 µg/mL ([3]; 45 μg/ml, elastase 1 μg/ml, tritiated insoluble elastin 75 μg/ml): 80%
IC50 ([3]; elastase 1 μg/ml incubated 10 min with compound): 75 µM
maximum inhibition (protection of insoluble elastic fibres) [4]: 50%
volume fraction V occupied by the cutaneous elastic fibres ([5]; elastase 15 μg/ml + compound 350 μg/ml, V without elastase 6.25±0.5%, with elastase alone 4.1±0.8%): 6.00±1%
inhibition at 350 µg/mL ([5]; pH 8, elastase 15 μg/ml + compound 350 μg/ml, read-out: protection from the action of elastase): 96%

SMILES: CCCCCCCCCCCCCC(=O)N1C(=O)c2ccccc2S1(=O)=O [Example 2, 2-myristoylbenzisothiazolinone-1-dioxide]
IC50 [2]: 9.2 µM

SMILES: CCCCCCCCCC(=O)N1C(=O)c2ccccc2S1(=O)=O [Example 5]
IC50 [2]: 86 µM

SMILES: C=CCCCCCCCCC(=O)N1C(=O)c2ccccc2S1(=O)=O [Example 6, 2-undecenoylbenzisothiazolinone-1-dioxide]
IC50 [2]: 75 µM

SMILES: O=C(C=Cc1ccccc1)N1C(=O)c2ccccc2S1(=O)=O [Example 8]
IC50 [2]: 90 µM

SMILES: O=C(CCc1ccccc1)N1C(=O)c2ccccc2S1(=O)=O [Example 9]
IC50 [2]: 48 µM

SMILES: COc1ccc(CCCC(=O)N2C(=O)c3ccccc3S2(=O)=O)cc1 [Example 10]
IC50 [2]: 36 µM

Second part, led by results:

IC50 [2]: 2.1 µM
inhibition relative to thrombin [1]: 20-40 times
inhibition relative to thrombin (Pig pancreatic elastase): 20-40 times
inhibition relative to thrombin (Trypsin; trypsin vs thrombin): 20-40 times
SMILES: CCCCCCCCCCCCCCCC(=O)N1C(=O)c2ccccc2S1(=O)=O [Example 3, 2-palmitoyl-benzisothiazolinone-1-dioxide]
inhibitory power relative to butyrylbenzisothiazolinone-1-dioxide (in words) (serine proteases): better inhibitor than butyrylbenzisothiazolinone-1-dioxide, irrespective of the enzyme used

IC50 [2]: 4.7 µM
SMILES: CCCCCCCCCCCCCCCCCC(=O)N1C(=O)c2ccccc2S1(=O)=O [Example 4, 2-stearoylbenzisothiazolinone-1-dioxide]

IC50 [2]: 5 µM
SMILES: COc1ccc(C=CC(=O)N2C(=O)c3ccccc3S2(=O)=O)cc1OC [Example 7, 2-[(3,4)-dimethoxycinnamoyl]-benzisothiazolinone-1-dioxide]
